Experimental data reported in patent US20090098130A1, “GLUCAGON-LIKE PROTEIN-1 RECEPTOR (GLP-1R) AGONIST COMPOUNDS” (priority 2007, published 2009).
Each block holds one molecule with its values, some of them ahead of it. Non-standard residues stand in square brackets, D forms with d. Residues, ends and D or L forms follow the SMILES beside them. Aib = CC(C)(N)C(=O)O

Columns and labels:
m38C2 = conditions: competition ELISA against immobilized BSA-conjugated β-diketone 1, read-out: apparent equilibrium dissociation constant; cited from earlier work
h38C2 = conditions: competition ELISA against immobilized BSA-conjugated β-diketone 1, read-out: apparent equilibrium dissociation constant; cited from earlier work
pancreatic β cells = assay: glucose-stimulated insulin secretion (GSIS) assay; format: cell-based
Experimental: Briefly, glucose and GA targeting peptide was added at various concentrations to pancreatic β cell cultures, and insulin secretion was detected by measuring insulin levels over time. EC50 was calculated for each peptide.
The ability of these GA targeting agent-linker conjugates to stimulate […] secretion in vitro was measured using the GSIS assay described in Example 27. […] Each of these peptides contained a side-chain modified Lys residue according to the scheme illustrated in FIG. 30 at a different position.

[1] = GA targeting agent-linker conjugate, GSIS assay in vitro
[2] = GA targeting peptide, insulin secretion from pancreatic β cell cultures in vitro with glucose

SMILES: CC(=O)CC(C)=O [β-diketone 2]
Kd (m38C2): 38 µM | Kd (h38C2): 7.6 µM

SMILES: CC(=O)CC(=O)CCc1ccccc1 [β-diketone 3]
Kd (m38C2): 0.43 µM | Kd (h38C2): 1 µM

EC50 (pancreatic β cells; [1]): < 10 µM
SMILES: CC[C@H](C)[C@H](NC(=O)[C@H](Cc1ccccc1)NC(=O)[C@H](CCC(=O)O)NC(=O)[C@H](CCCCN)NC(=O)[C@@H](NC(=O)[C@H](C)NC(=O)[C@H](CCC(N)=O)NC(=O)[C@H](CCC(=O)O)NC(=O)[C@H](CCC(=O)O)NC(=O)[C@H](CC(C)C)NC(=O)[C@H](Cc1ccc(O)cc1)NC(=O)[C@H](CO)NC(=O)[C@H](CO)NC(=O)[C@@H](NC(=O)[C@H](CC(=O)O)NC(=O)[C@H](CO)NC(=O)[C@@H](NC(=O)[C@H](Cc1ccccc1)NC(=O)[C@@H](NC(=O)CNC(=O)[C@H](CCC(=O)O)NC(=O)C(C)(C)NC(=O)[C@H](Cc1c[nH]cn1)NC(=O)Cc1cccc(N)c1)[C@@H](C)O)[C@@H](C)O)C(C)C)C(C)C)C(=O)N[C@@H](C)C(=O)N[C@@H](Cc1c[nH]c2ccccc12)C(=O)N[C@@H](CC(C)C)C(=O)N[C@H](C(=O)N[C@@H](CCCCN)C(=O)NC(C)(C)C(=O)N[C@@H](CCCNC(=N)N)C(N)=O)[C@@H](C)CC

EC50 (pancreatic β cells; [2]): < 10 µM
SMILES: CC[C@H](C)[C@H](NC(=O)[C@H](Cc1ccccc1)NC(=O)[C@H](CCC(=O)O)NC(=O)[C@H](CCCCN)NC(=O)[C@H](C)NC(=O)[C@H](C)NC(=O)[C@H](CCC(N)=O)NC(=O)CNC(=O)[C@H](CCC(=O)O)NC(=O)[C@H](CC(C)C)NC(=O)[C@H](Cc1ccc(O)cc1)NC(=O)[C@H](CO)NC(=O)[C@H](CO)NC(=O)[C@@H](NC(=O)[C@H](CC(=O)O)NC(=O)[C@H](CO)NC(=O)[C@@H](NC(=O)[C@H](Cc1ccccc1)NC(=O)[C@@H](NC(=O)CNC(=O)[C@H](CCC(=O)O)NC(=O)C(C)(C)NC(=O)[C@@H](N)Cc1c[nH]cn1)[C@@H](C)O)[C@@H](C)O)C(C)C)C(=O)N[C@@H](C)C(=O)N[C@@H](Cc1ccccc1)C(=O)N[C@@H](CC(C)C)C(=O)N[C@H](C(=O)N[C@@H](CCCCN)C(=O)NC(C)(C)C(=O)N[C@@H](CCCNC(=N)N)C(N)=O)C(C)C [SEQ ID NO: 53]

EC50 (pancreatic β cells; [2]): < 10 µM
SMILES: CC[C@H](C)[C@H](NC(=O)[C@H](Cc1ccccc1)NC(=O)[C@H](CCC(=O)O)NC(=O)[C@H](CCCCN)NC(=O)[C@H](C)NC(=O)[C@H](C)NC(=O)[C@H](CCC(N)=O)NC(=O)CNC(=O)[C@H](CCC(=O)O)NC(=O)[C@H](Cc1ccccc1)NC(=O)[C@H](Cc1ccc(O)cc1)NC(=O)[C@H](CO)NC(=O)[C@H](CO)NC(=O)[C@@H](NC(=O)[C@H](CC(=O)O)NC(=O)[C@H](CO)NC(=O)[C@@H](NC(=O)[C@H](Cc1ccccc1)NC(=O)[C@@H](NC(=O)CNC(=O)[C@H](CCC(=O)O)NC(=O)C(C)(C)NC(=O)[C@@H](N)Cc1c[nH]cn1)[C@@H](C)O)[C@@H](C)O)C(C)C)C(=O)N[C@@H](C)C(=O)N[C@@H](Cc1c[nH]c2ccccc12)C(=O)N[C@@H](CC(C)C)C(=O)N[C@H](C(=O)N[C@@H](CCCCN)C(=O)NC(C)(C)C(=O)N[C@@H](CCCNC(=N)N)C(N)=O)C(C)C [SEQ ID NO: 42] (H-H[Aib]EGTFTSDVSSYFEGQAAKEFIAWLVK[Aib]R-NH2)

EC50 (pancreatic β cells; [2]): < 10 µM
SMILES: CC[C@H](C)[C@H](NC(=O)[C@H](Cc1ccccc1)NC(=O)[C@H](CCC(=O)O)NC(=O)[C@H](CCCCN)NC(=O)[C@@H](NC(=O)[C@H](C)NC(=O)[C@H](CCC(N)=O)NC(=O)[C@H](CCC(=O)O)NC(=O)[C@H](CCC(=O)O)NC(=O)[C@H](Cc1ccc(O)cc1)NC(=O)[C@H](Cc1ccc(O)cc1)NC(=O)[C@H](CO)NC(=O)[C@H](CO)NC(=O)[C@@H](NC(=O)[C@H](CC(=O)O)NC(=O)[C@H](CO)NC(=O)[C@@H](NC(=O)[C@H](Cc1ccccc1)NC(=O)[C@@H](NC(=O)CNC(=O)[C@H](CCC(=O)O)NC(=O)C(C)(C)NC(=O)[C@@H](N)Cc1c[nH]cn1)[C@@H](C)O)[C@@H](C)O)C(C)C)C(C)C)C(=O)N[C@@H](C)C(=O)N[C@@H](Cc1c[nH]c2ccccc12)C(=O)N[C@@H](CC(C)C)C(=O)N[C@H](C(=O)N[C@@H](CCCCN)C(=O)NC(C)(C)C(=O)N[C@@H](CCCNC(=N)N)C(N)=O)[C@@H](C)CC [SEQ ID NO: 59] (H-H[Aib]EGTFTSDVSSYYEEQAVKEFIAWLIK[Aib]R-NH2)

EC50 (pancreatic β cells; [1]): < 10 µM
SMILES: CC[C@H](C)[C@H](NC(=O)[C@H](Cc1ccccc1)NC(=O)[C@H](CCC(=O)O)NC(=O)[C@H](CCCCN)NC(=O)[C@H](C)NC(=O)[C@H](C)NC(=O)[C@H](CCC(N)=O)NC(=O)CNC(=O)[C@H](CCC(=O)O)NC(=O)[C@H](CC(C)C)NC(=O)[C@H](Cc1ccc(O)cc1)NC(=O)[C@H](CO)NC(=O)[C@H](CO)NC(=O)[C@@H](NC(=O)[C@H](CC(=O)O)NC(=O)[C@H](CO)NC(=O)[C@@H](NC(=O)[C@H](Cc1ccccc1)NC(=O)[C@@H](NC(=O)CNC(=O)[C@H](CCC(=O)O)NC(=O)CNC(=O)[C@H](Cc1c[nH]cn1)NC(=O)CCOCCOCCOCCOCCNC(=O)CCCC(=O)Nc1ccc(CCC(=O)CC(C)=O)cc1)[C@@H](C)O)[C@@H](C)O)C(C)C)C(=O)N[C@@H](C)C(=O)N[C@@H](Cc1c[nH]c2ccccc12)C(=O)N[C@@H](CC(C)C)C(=O)N[C@H](C(=O)N[C@@H](CCCCN)C(=O)NCC(=O)N[C@@H](CCCNC(=N)N)C(=O)N[C@@H](CCCCN)C(N)=O)C(C)C

EC50 (pancreatic β cells; [2]): < 10 µM
SMILES: CC[C@H](C)[C@H](NC(=O)[C@H](Cc1ccccc1)NC(=O)[C@H](CCC(=O)O)NC(=O)[C@H](CCCCN)NC(=O)[C@H](C)NC(=O)[C@H](C)NC(=O)[C@H](CCC(N)=O)NC(=O)CNC(=O)[C@H](CCC(=O)O)NC(=O)[C@H](CC(C)C)NC(=O)[C@H](Cc1ccc(O)cc1)NC(=O)[C@H](CO)NC(=O)[C@H](CO)NC(=O)[C@@H](NC(=O)[C@H](CC(=O)O)NC(=O)[C@H](CO)NC(=O)[C@@H](NC(=O)[C@H](Cc1ccccc1)NC(=O)[C@@H](NC(=O)CNC(=O)[C@H](CCC(=O)O)NC(=O)C(C)(C)NC(=O)[C@@H](N)Cc1c[nH]cn1)[C@@H](C)O)[C@@H](C)O)C(C)C)C(=O)N[C@@H](C)C(=O)N[C@@H](Cc1c[nH]c2ccccc12)C(=O)N[C@@H](CC(C)C)C(=O)N[C@H](C(=O)N[C@@H](CCCNC(=N)N)C(=O)NC(C)(C)C(=O)N[C@@H](CCCNC(=N)N)C(N)=O)C(C)C [SEQ ID NO: 55]

EC50 (pancreatic β cells; [2]): < 10 µM
SMILES: CC[C@H](C)[C@H](NC(=O)[C@H](Cc1ccccc1)NC(=O)[C@H](CCC(=O)O)NC(=O)[C@H](CCCNC(=N)N)NC(=O)[C@@H](NC(=O)[C@H](C)NC(=O)[C@H](CCC(N)=O)NC(=O)[C@H](CCC(=O)O)NC(=O)[C@H](CCC(=O)O)NC(=O)[C@H](CC(C)C)NC(=O)[C@H](Cc1ccc(O)cc1)NC(=O)[C@H](CO)NC(=O)[C@H](CO)NC(=O)[C@@H](NC(=O)[C@H](CC(=O)O)NC(=O)[C@H](CO)NC(=O)[C@@H](NC(=O)[C@H](Cc1ccccc1)NC(=O)[C@@H](NC(=O)CNC(=O)[C@H](CCC(=O)O)NC(=O)C(C)(C)NC(=O)[C@@H](N)Cc1c[nH]cn1)[C@@H](C)O)[C@@H](C)O)C(C)C)C(C)C)C(=O)N[C@@H](C)C(=O)N[C@@H](Cc1c[nH]c2ccccc12)C(=O)N[C@@H](CC(C)C)C(=O)N[C@H](C(=O)N[C@@H](CCCNC(=N)N)C(=O)NC(C)(C)C(=O)N[C@@H](CCCNC(=N)N)C(N)=O)[C@@H](C)CC [SEQ ID NO: 62] (H-H[Aib]EGTFTSDVSSYLEEQAVREFIAWLIR[Aib]R-NH2)
